Assay results published in PubChem BioAssay AID256 (DTP/NCI, 2004).
Where “and” joins values, the source holds several entries; their conditions need not be identical. Equal values may be shown once. Toxic doses and inconclusive results are not listed. Rule for the calls: active = survival T/C of 150% or more; inactive = T/C below 125% in these data.

Tested on: CD2F1 mice, L1210 leukemia ip, survival T/C
Assay: NCI In Vivo Anticancer Drug Screen. Data for tumor model L1210 Leukemia (intraperitoneal) in CD2F1 (CDF1) mice
Details: higher = longer survival
Procedure, shortened: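 Antitumor effect is scored in animals hosting a serially transplanted tumor. Values compare compound-dosed animals against vehicle-only controls as a simple quotient.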

[1] = endpoint: mean survival time, dose: 100.0 mg/kg/injection, schedule: Q01DX001 (ip), vehicle: saline with Tween-80
[2] = endpoint: mean survival time, dose: 100.0 mg/kg/injection, schedule: Q01DX009 (ip), vehicle: saline with Tween-80
[3] = endpoint: mean survival time, dose: 200.0 mg/kg/injection, schedule: Q01DX001 (ip), vehicle: saline with Tween-80
[4] = endpoint: mean survival time, dose: 200.0 mg/kg/injection, schedule: Q01DX009 (ip), vehicle: saline with Tween-80
[5] = endpoint: mean survival time, dose: 400.0 mg/kg/injection, schedule: Q01DX001 (ip), vehicle: saline with Tween-80
[6] = endpoint: mean survival time, dose: 400.0 mg/kg/injection, schedule: Q01DX009 (ip), vehicle: saline with Tween-80
[7] = endpoint: mean survival time, dose: 100.0 mg/kg/injection, schedule: Q04DX003 (ip), vehicle: saline with Tween-80
[8] = endpoint: mean survival time, dose: 200.0 mg/kg/injection, schedule: Q04DX003 (ip), vehicle: saline with Tween-80
[9] = endpoint: mean survival time, dose: 400.0 mg/kg/injection, schedule: Q04DX003 (ip), vehicle: saline with Tween-80
[10] = endpoint: mean survival time, dose: 100.0 mg/kg/injection, schedule: Q04DX002 (ip), vehicle: saline with Tween-80
[11] = endpoint: mean survival time, dose: 50.0 mg/kg/injection, schedule: Q01DX009 (ip), vehicle: saline with Tween-80

Measured: T/C

COc1cc(OC)c2c[n+](C)c3c4cc(OC)c(OC)cc4ccc3c2c1
inactive: endpoint: mean survival time, dose: 12.5 mg/kg/injection, schedule: Q01DX009 (ip), vehicle: saline 102 % of control | endpoint: mean survival time, dose: 25.0 mg/kg/injection, schedule: Q01DX009 (ip), vehicle: saline 102 % of control | endpoint: mean survival time, dose: 50.0 mg/kg/injection, schedule: Q01DX009 (ip), vehicle: saline 98 % of control

O=C1NC(c2ccccc2Cl)Nc2ccccc21 (stereo not given)
inactive: endpoint: mean survival time, dose: 50.0 mg/kg/injection, schedule: Q01DX009 (ip), vehicle: Klucel (hydroxypropylcellulose) (HPC) 91 % of control | endpoint: mean survival time, dose: 100.0 mg/kg/injection, schedule: Q01DX009 (ip), vehicle: Klucel (hydroxypropylcellulose) (HPC) 107 % of control | endpoint: mean survival time, dose: 200.0 mg/kg/injection, schedule: Q01DX009 (ip), vehicle: Klucel (hydroxypropylcellulose) (HPC) 93 % of control | endpoint: mean survival time, dose: 400.0 mg/kg/injection, schedule: Q01DX009 (ip), vehicle: Klucel (hydroxypropylcellulose) (HPC) 93 % of control

COC(=O)C1OC(OC(C)=O)C(OC(C)=O)C(OC(C)=O)C1C(=O)OC (stereo not given)
inactive: [1] 93 % of control | [2] 101 % of control | [3] 95 % of control | [4] 105 % of control | [5] 93 % of control | [6] 105 % of control

COc1ccc2[nH]c3c(c2c1)CNCC3
inactive: endpoint: mean survival time, dose: 50.0 mg/kg/injection, schedule: Q01DX001 (ip), vehicle: saline 106 % of control | endpoint: mean survival time, dose: 100.0 mg/kg/injection, schedule: Q01DX001 (ip), vehicle: saline 102 % of control | endpoint: mean survival time, dose: 200.0 mg/kg/injection, schedule: Q01DX001 (ip), vehicle: saline 113 % of control

O=C1OC(=O)C2C3C=CC(C3)C12 (stereo not given)
inactive: endpoint: mean survival time, dose: 12.5 mg/kg/injection, schedule: Q04DX003 (ip), vehicle: saline with Tween-80 95 % of control | endpoint: mean survival time, dose: 25.0 mg/kg/injection, schedule: Q04DX003 (ip), vehicle: saline with Tween-80 101 % of control | endpoint: mean survival time, dose: 50.0 mg/kg/injection, schedule: Q04DX003 (ip), vehicle: saline with Tween-80 95 % of control | [1] 98 % of control | endpoint: mean survival time, dose: 100.0 mg/kg/injection, schedule: Q01DX009 (ip), vehicle: saline 102 % of control | [7] 101 % of control | [3] 100 % of control | endpoint: mean survival time, dose: 200.0 mg/kg/injection, schedule: Q01DX009 (ip), vehicle: saline 96 % of control | [8] 102 % of control | [5] 93 % of control | endpoint: mean survival time, dose: 400.0 mg/kg/injection, schedule: Q01DX009 (ip), vehicle: saline 90 % of control | [9] 102 % of control

CCOP(=S)(OCC)N1CC1
inactive: [10] 104 % of control | endpoint: mean survival time, dose: 200.0 mg/kg/injection, schedule: Q04DX002 (ip), vehicle: saline with Tween-80 93 % of control | endpoint: mean survival time, dose: 400.0 mg/kg/injection, schedule: Q04DX002 (ip), vehicle: saline with Tween-80 89 % of control

Cc1cc2nc(Cc3nc4cc(C)c(C)cc4[nH]3)[nH]c2cc1C
inactive: [11] 93 % of control | [2] 87 % of control | [4] 88 % of control

O=[N+]([O-])c1cccn2nc(C3OC(CO)C(O)C3O)nc12 (stereo not given)
inactive: endpoint: mean survival time, dose: 12.5 mg/kg/injection, schedule: Q01DX005 (ip), vehicle: water 96 % of control | endpoint: mean survival time, dose: 25.0 mg/kg/injection, schedule: Q01DX005 (ip), vehicle: water 97 % of control | endpoint: mean survival time, dose: 50.0 mg/kg/injection, schedule: Q01DX005 (ip), vehicle: water 94 % of control | endpoint: mean survival time, dose: 100.0 mg/kg/injection, schedule: Q01DX005 (ip), vehicle: water 100 % of control

CCOC(=O)NC12c3ccccc3C(c3ccccc31)C(C(=O)O)C2C(=O)O (stereo not given)
inactive: [2] 90 % of control | [4] 100 % of control | [6] 103 % of control

Cc1nc(N)nc(N)c1N1CCN(c2ccc(C(=O)NC(C(=O)O)C(=O)O)cc2)CC1
inactive: endpoint: median survival time, dose: 1.88 mg/kg/injection, schedule: Q01DX005 (ip), vehicle: Klucel + Tween-80 117 % of control
active: endpoint: median survival time, dose: 3.75 mg/kg/injection, schedule: Q01DX005 (ip), vehicle: Klucel + Tween-80 152 % of control | endpoint: median survival time, dose: 7.5 mg/kg/injection, schedule: Q01DX005 (ip), vehicle: Klucel + Tween-80 150 % of control and 163 % of control | endpoint: median survival time, dose: 15.0 mg/kg/injection, schedule: Q01DX005 (ip), vehicle: Klucel + Tween-80 167 % of control and 184 % of control | endpoint: median survival time, dose: 30.0 mg/kg/injection, schedule: Q01DX005 (ip), vehicle: Klucel + Tween-80 181 % of control

CC1(C)N=C(N)N=C(N)N1c1ccc(CCCCc2ccc(S(=O)(=O)F)cc2)c(Cl)c1
inactive: endpoint: mean survival time, dose: 13.0 mg/kg/injection, schedule: Q01DX009 (ip), vehicle: saline with Tween-80 116 % of control | endpoint: mean survival time, dose: 20.0 mg/kg/injection, schedule: Q01DX009 (ip), vehicle: saline with Tween-80 120 % of control | endpoint: mean survival time, dose: 45.0 mg/kg/injection, schedule: Q01DX009 (ip), vehicle: saline with Tween-80 93 % of control

Cc1ncc2c(=O)[nH]cnc2n1
inactive: [7] 93 % of control | [8] 91 % of control | [9] 90 % of control

Nc1ncnc2c1ncn2C1OC(CCC(=O)NCCc2c[nH]c3ccccc23)C(O)C1O (stereo not given)
inactive: endpoint: median survival time, dose: 10.63 mg/kg/injection, schedule: Q01DX005 (ip), vehicle: distilled water + Tween-80 101 % of control | endpoint: median survival time, dose: 21.25 mg/kg/injection, schedule: Q01DX005 (ip), vehicle: distilled water + Tween-80 102 % of control | endpoint: median survival time, dose: 42.5 mg/kg/injection, schedule: Q01DX005 (ip), vehicle: distilled water + Tween-80 97 % of control | endpoint: median survival time, dose: 85.0 mg/kg/injection, schedule: Q01DX005 (ip), vehicle: distilled water + Tween-80 96 % of control | endpoint: median survival time, dose: 170.0 mg/kg/injection, schedule: Q01DX005 (ip), vehicle: distilled water + Tween-80 101 % of control

[CH3][Sn]1([CH3])[O]C2C(CO)OC(n3cnc4c(N)ncnc43)C2[O]1 (stereo not given)
inactive: endpoint: mean survival time, dose: 12.5 mg/kg/injection, schedule: Q01DX005 (ip), vehicle: other 98 % of control | endpoint: mean survival time, dose: 25.0 mg/kg/injection, schedule: Q01DX005 (ip), vehicle: other 92 % of control | endpoint: mean survival time, dose: 50.0 mg/kg/injection, schedule: Q01DX005 (ip), vehicle: other 97 % of control

CCOC(=O)CCC(C(=O)OCC)N1C(=O)c2ccccc2C1=O (stereo not given)
inactive: endpoint: mean survival time, dose: 25.0 mg/kg/injection, schedule: Q04DX002 (ip), vehicle: saline with Tween-80 100 % of control | endpoint: mean survival time, dose: 50.0 mg/kg/injection, schedule: Q04DX002 (ip), vehicle: saline with Tween-80 103 % of control | [10] 100 % of control

Cc1[nH]c(=S)[nH]c(=O)c1CCO
inactive: [1] 105 % of control | [2] 101 % of control | [3] 95 % of control | [4] 103 % of control | [5] 100 % of control | [6] 101 % of control

CC(=O)CC(OC(C)=O)(C(F)(F)F)C(F)(F)F
inactive: endpoint: mean survival time, dose: 25.0 mg/kg/injection, schedule: Q04DX002 (ip), vehicle: saline 98 % of control | endpoint: mean survival time, dose: 50.0 mg/kg/injection, schedule: Q04DX002 (ip), vehicle: saline 102 % of control | endpoint: mean survival time, dose: 100.0 mg/kg/injection, schedule: Q04DX003 (ip), vehicle: Klucel (hydroxypropylcellulose) (HPC) 90 % of control

CC(C)C(C=O)C(O)(C(F)(F)F)C(F)(F)Cl (stereo not given)
inactive: [7] 91 % of control

CN(C)CCCC#N
inactive: [11] 96 % of control | [2] 102 % of control

CC(=O)O.[Ni]
inactive: endpoint: mean survival time, dose: 40.0 mg/kg/injection, schedule: Q01DX001 (ip), vehicle: saline 118 % of control

CCCCCCCCCCCCCCCCCCNC(=O)Nc1ccc(C)c(C)c1
inactive: [2] 104 % of control | [7] 91 % of control | [4] 105 % of control | [8] 89 % of control | [6] 105 % of control | [9] 98 % of control

CCC(C)C1NC(=O)C(NC(=O)c2c3nc4c(C(=O)NC5C(=O)NC(C(C)CC)C(=O)N6CCCC6C(=O)N(C)CC(=O)N(C)C(C(C)C)C(=O)OC5C)cc([N+](=O)[O-])c(C)c4oc-3c(C)c(=O)c2N)C(C)OC(=O)C(C(C)C)N(C)C(=O)CN(C)C(=O)C2CCCN2C1=O (stereo not given)
inactive: endpoint: mean survival time, dose: 0.05 mg/kg/injection, schedule: Q01DX009 (ip), vehicle: water 107 % of control | endpoint: mean survival time, dose: 0.1 mg/kg/injection, schedule: Q01DX009 (ip), vehicle: water 116 % of control | endpoint: mean survival time, dose: 0.2 mg/kg/injection, schedule: Q01DX009 (ip), vehicle: water 112 % of control | endpoint: mean survival time, dose: 0.4 mg/kg/injection, schedule: Q01DX009 (ip), vehicle: water 94 % of control

CCC1OC(OC)C=CC1=O (stereo not given)
inactive: endpoint: median survival time, dose: 12.5 mg/kg/injection, schedule: Q01DX009 (ip), vehicle: saline 100 % of control | endpoint: median survival time, dose: 25.0 mg/kg/injection, schedule: Q01DX009 (ip), vehicle: saline 102 % of control | endpoint: median survival time, dose: 50.0 mg/kg/injection, schedule: Q01DX009 (ip), vehicle: saline 105 % of control | endpoint: median survival time, dose: 100.0 mg/kg/injection, schedule: Q01DX009 (ip), vehicle: saline 102 % of control
